Laboratory results as given in patent US9340819B2, “Method for detecting the presence of carbapenemase-producing bacteria in a sample” (priority 2011, dated 2016).
Values after ≈ are worked out from the molar mass of the structure shown.

Legend:
[1] = tested on: M. morganii; experiment: MIC of carbapenem by Etest (Example 2); format: cell-based, Morganella morganii; conditions: Plasmid mediated AmpC or chromosomal AmpC + decreased membrane permeability; M. morganii Overexpressed cephalosporinase, n=2
Procedure: (§1) All strains had previously been characterized for their β-lactamase content at the molecular level. Minimum inhibitory concentration of carbapenem were determined using the Etest® (AB bioMérieux, Solna, Sweden) and results were recorded according to US guidelines (CLSI), as updated in 2011.

[2] = tested on: E. aerogenes; experiment: MIC of carbapenem by Etest (Example 2); format: cell-based, Enterobacter aerogenes
Procedure: as §1

[3] = tested on: P. rettgeri; experiment: MIC by Etest on Mueller-Hinton agar (Example 1); format: cell-based, Proteus rettgeri; conditions: Providencia rettgeri; P. rettgeri RAP (9); OXA-181 + OXA-1
Procedure: (§2) Prior to performing the method of the invention, susceptibility testings were performed by determining Minimum Inhibitory Concentration (MIC) values by the Etest® (AB bioMérieux; Solna, Sweden) on Mueller-Hinton agar plates at 37° C. and results of susceptibility testing were recorded according to the Clinical and Laboratory Standards Institute (CLSI) guidelines as modified in June 2010 (18). The breakpoints for imipenem are S≦1 μg/ml (susceptibility) and R≧4 μg/ml (resistant). As for those for ertapenem, they are S≦0.25 μg/ml and R≧1 μg/ml (see Tables 1 and 2).

[4] = tested on: C. freundii; experiment: MIC by Etest on Mueller-Hinton agar (Example 1); format: cell-based; conditions: Citrobacter freundii; C. freundii STE (13); NDM-1 + OXA-1 + OXA-9 + OXA-10 + CTX-M-15 + TEM-1
Procedure: as §2

[5] = tested on: K. pneumoniae; experiment: MIC by Etest on Mueller-Hinton agar (Example 1); format: cell-based; conditions: Klebsiella pneumoniae
Procedure: as §2

[6] = tested on: E. cloacae; experiment: MIC by Etest on Mueller-Hinton agar (Example 1); format: cell-based; conditions: Enterobacter cloacae
Procedure: as §2

[7] = tested on: P. mirabilis; experiment: MIC by Etest on Mueller-Hinton agar (Example 1); format: cell-based; conditions: Proteus mirabilis, plasmid mediated cephalosporinase ACC-1
Procedure: as §2

[8] = tested on: P. stuartii; experiment: MIC by Etest on Mueller-Hinton agar (Example 1); format: cell-based; conditions: Providencia stuartii, NDM-1 + OXA-1 + CMY-6
Procedure: as §2

[9] = tested on: E. coli; experiment: MIC by Etest on Mueller-Hinton agar (Example 1); format: cell-based, Escherichia coli; conditions: for MIC: Escherichia coli
Procedure: as §2

[10] = tested on: P. mirabilis; experiment: MIC of carbapenem by Etest (Example 2); format: cell-based, Proteus mirabilis; conditions: Plasmid mediated AmpC or chromosomal AmpC + decreased membrane permeability; P. mirabilis ACC-1, n=1
Procedure: as §1

[11] = tested on: S. marcescens; experiment: MIC of carbapenem by Etest (Example 2); format: cell-based, Serratia marcescens
Procedure: as §1

[12] = tested on: P. stuartii; experiment: MIC of carbapenem by Etest (Example 2); format: cell-based, Providencia stuartii; conditions: P. stuartii NDM-1, n=1
Procedure: as §1

[13] = tested on: E. coli; experiment: MIC of carbapenem by Etest (Example 2); format: cell-based, Escherichia coli
Procedure: as §1

[14] = tested on: C. freundii; experiment: MIC of carbapenem by Etest (Example 2); format: cell-based, Citrobacter freundii
Procedure: as §1

[15] = tested on: E. asburiae; experiment: MIC of carbapenem by Etest (Example 2); format: cell-based, Enterobacter asburiae; conditions: E. asburiae IMI-2, n=1
Procedure: as §1

[16] = tested on: E. cloacae; experiment: MIC of carbapenem by Etest (Example 2); format: cell-based, Enterobacter cloacae
Procedure: as §1

[17] = tested on: P. rettgeri; experiment: MIC of carbapenem by Etest (Example 2); format: cell-based, Proteus rettgeri
Procedure: as §1

Compound: C[C@@H](O)[C@H]1C(=O)N2C(C(=O)O)=C(SCCN=CN)C[C@H]12 [IMP, imipenem]
- MICs range [1]: 1.5 to 2^ mg/L
- MICs range ([2]; E. aerogenes KPC-2, n=1): 8 mg/L
- MICs range ([2]; Plasmid mediated AmpC or chromosomal AmpC + decreased membrane permeability, E. aerogenes Overexpressed cephalosporinase, n=1): 1 mg/L
- MIC [3]: 1 µg/mL
- MIC [4]: > 32 µg/mL
- MIC ([5]; CIP53153, K. pneumoniae CIP53153 (30), wild-type): 0.19 µg/mL (≈ 0.635 µM)
- MIC ([5]; K. pneumoniae 1 OMA (11), NDM-1 + CTX-M-15 + OXA-1 + OXA-9): > 32 µg/mL
- MIC ([5]; K. pneumoniae 2 OMA, NDM-1 + OXA-1): > 32 µg/mL
- MIC ([5]; K. pneumoniae 7 AFR, NDM-1 + OXA-1 + CTX-M-15 + CMY-6 + TEM-1): > 32 µg/mL
- MIC ([5]; K. pneumoniae 6299 (19), ESBL OXA-163): 0.19 µg/mL (≈ 0.635 µM)
- MIC ([5]; K. pneumoniae 6759 GEN, NDM-1 + CTX-M-15 + OXA-1 + OXA-9 + OXA-10 + CMY16): 6 µg/mL
- MIC ([5]; K. pneumoniae (16), ESBL CTX-M-15): 0.19 µg/mL (≈ 0.635 µM)
- MIC ([5]; K. pneumoniae BEL, OXA-48): 1 µg/mL (≈ 3.34 µM)
- MIC ([5]; K. pneumoniae BER (28), porin deficiency associated with ESBL, TEM): 0.5 µg/mL (≈ 1.67 µM)
- MIC ([5]; K. pneumoniae BIC (4), OXA-48): 0.5 µg/mL (≈ 1.67 µM)
- MIC ([5]; K. pneumoniae CHA (5), OXA-48 + TEM-1): 0.5 µg/mL
- MIC ([5]; K. pneumoniae COO (27), porin deficiency associated with ESBL, CTX-M-15 + SHV-28): 0.5 µg/mL
- MIC ([5]; K. pneumoniae DIN, NDM-1): 8 µg/mL (≈ 26.7 µM)
- MIC ([5]; K. pneumoniae EGY, OXA-48 + CTX-M-15): 2 µg/mL
- MIC ([5]; K. pneumoniae H1516-6 COL (3), KPC-2 + TEM-1 + CTXM-15): 2 µg/mL
- MIC ([5]; K. pneumoniae HOL, OXA-181 + CTX-M-15): 0.5 µg/mL
- MIC ([5]; K. pneumoniae IND, NDM-1 + OXA-1 + CTX-M-15): 6 µg/mL
- MIC ([5]; K. pneumoniae MAD (15), IMP-13): 0.5 µg/mL (≈ 1.67 µM)
- MIC ([5]; K. pneumoniae MAD, VIM-1 + CTX-M-3): > 32 µg/mL
- MIC ([5]; K. pneumoniae OMA (8), OXA-181 + CTXM-15 + OXA-1): 0.5 µg/mL
- MIC ([5]; K. pneumoniae RAM, OXA-48): 1 µg/mL (≈ 3.34 µM)
- MIC ([5]; K. pneumoniae SAB, NDM-1): 2 µg/mL (≈ 6.68 µM)
- MIC ([5]; K. pneumoniae UK (10), NDM-1 + CTX-M-15 + CMY-4 + OXA-1): 8 µg/mL
- MIC ([6]; E. cloacae 2185, ESBL OXA-163): 0.19 µg/mL (≈ 0.635 µM)
- MIC ([6]; E. cloacae (1), KPC-2): 4 µg/mL (≈ 13.4 µM)
- MIC ([6]; E. cloacae (17), ESBL CTX-M-15): 0.19 µg/mL (≈ 0.635 µM)
- MIC ([6]; E. cloacae ARF (25), overexpression of chromosomal cephalosporinase AmpC): 0.38 µg/mL (≈ 1.27 µM)
- MIC ([6]; E. cloacae BLA, overexpression of chromosomal cephalosporinase AmpC): 0.38 µg/mL (≈ 1.27 µM)
- MIC ([6]; E. cloacae CON (26), overexpression of chromosomal cephalosporinase AmpC): 0.5 µg/mL (≈ 1.67 µM)
- MIC ([6]; E. cloacae IR38, NDM-1 + CTX-M-15): > 32 µg/mL
- MIC ([6]; E. cloacae TUR (6), OXA-48 + SHV-5): 0.5 µg/mL
- MIC ([6]; E. cloacae, ESBL VEB-1): 0.19 µg/mL (≈ 0.635 µM)
- MIC [7]: 0.19 µg/mL (≈ 0.635 µM)
- MIC [8]: > 32 µg/mL
- MICs ([9]; E. coli Ec13 SYD (23), plasmid mediated cephalosporinase CMY-2): 0.06 µg/mL
- MICs ([9]; E. coli J53 (29), wild-type): 0.06 µg/mL
- MICs ([9]; E. coli VMC (24), plasmid mediated cephalosporinase CMY-10): 0.06 µg/mL
- MIC ([9]; E. coli 271 AUS (12), NDM-1 + CTX-M-15 + TEM-1): 6 µg/mL
- MIC ([9]; E. coli 5649 GEN, NDM-1 + OXA-1 + CMY-30 + TEM-1): 6 µg/mL
- MIC ([9]; E. coli (18), ESBL CTX-M-14): 0.06 µg/mL (≈ 0.2 µM)
- MIC ([9]; E. coli (20), ESBL VEB-1): 0.06 µg/mL (≈ 0.2 µM)
- MIC ([9]; E. coli ALL, NDM-1 + OXA-1 + OXA-2 + CTX-M-15 + TEM-1): 4 µg/mL
- MIC ([9]; E. coli BOU, OXA-48 + CTX-M-15): 1 µg/mL
- MIC ([9]; E. coli COL (2), KPC-2): 4 µg/mL (≈ 13.4 µM)
- MIC ([9]; E. coli DIH, VIM-19): 1 µg/mL (≈ 3.34 µM)
- MIC ([9]; E. coli DIN, KPC): 16 µg/mL (≈ 53.4 µM)
- MIC ([9]; E. coli FOR, ESBL CTX-M-15): 0.06 µg/mL (≈ 0.2 µM)
- MIC ([9]; E. coli HAN (7), OXA-48): 0.5 µg/mL (≈ 1.67 µM)
- MIC ([9]; E. coli MAD (14), VIM-1 + CTX-M-3): 1.5 µg/mL
- MIC ([9]; E. coli MAD, IMP-1): 0.5 µg/mL (≈ 1.67 µM)
- MIC ([9]; E. coli PSP, KPC-2): 1 µg/mL (≈ 3.34 µM)
- MIC ([9]; E. coli RIC, NDM-1 + OXA-1 + OXA-10 + CMY-16): 4 µg/mL
- MICs range [10]: 0.25 mg/L
- MICs range ([11]; S. marcescens IMP-11, n=1): 8 mg/L
- MICs range ([11]; S. marcescens KPC-2, n=2): >32 mg/L
- MICs range ([11]; S. marcescens SME-1, n=1): 32 mg/L
- MICs range ([11]; S. marcescens SME-2, n=1): 32 mg/L
- MICs range ([11]; S. marcescens VIM-2, n=1): >32 mg/L
- MICs range [12]: 12 mg/L
- MICs range ([13]; E. coli IMP-1, n=2): 0.5 mg/L
- MICs range ([13]; E. coli IMP-8, n=1): 6 mg/L
- MICs range ([13]; E. coli KPC-2, n=5): 0.5 to 4 mg/L
- MICs range ([13]; E. coli NDM-1, n=7): 1 to 16 mg/L
- MICs range ([13]; E. coli OXA-48, n=6): 0.38 to 3 mg/L
- MICs range ([13]; E. coli VIM-1, n=2): 1.5 to 3 mg/L
- MICs range ([13]; E. coli VIM-2, n=2): 2 to 4 mg/L
- MICs range ([13]; E. coli VIM-19, n=1): 8 mg/L
- MICs range ([13]; ESBLs, E. coli CTX-M-1, n=1): 0.12 mg/L
- MICs range ([13]; ESBLs, E. coli CTX-M-3, n=1): 0.12 mg/L
- MICs range ([13]; ESBLs, E. coli CTX-M-14, n=2): 0.12 mg/L
- MICs range ([13]; ESBLs, E. coli CTX-M-15, n=2): 0.12 mg/L
- MICs range ([13]; ESBLs, E. coli VEB-1, n=1): 0.12 to 0.25 mg/L
- MICs range ([13]; Plasmid mediated AmpC or chromosomal AmpC + decreased membrane permeability, E. coli ACC-1, n=1): 0.12 mg/L
- MICs range ([13]; Plasmid mediated AmpC or chromosomal AmpC + decreased membrane permeability, E. coli CMY-2, n=1): 0.12 mg/L
- MICs range ([13]; Plasmid mediated AmpC or chromosomal AmpC + decreased membrane permeability, E. coli CMY-10, n=1): 0.12 mg/L
- MICs range ([13]; Plasmid mediated AmpC or chromosomal AmpC + decreased membrane permeability, E. coli DHA-1, n=1): 0.12 mg/L
- MICs range ([13]; Plasmid mediated AmpC or chromosomal AmpC + decreased membrane permeability, E. coli Extended spectrum cephalosporinase, n=1): 0.12 mg/L
- MICs range ([13]; Plasmid mediated AmpC or chromosomal AmpC + decreased membrane permeability, E. coli Overexpressed cephalosporinase, n=1): 16 mg/L
- MICs range ([14]; C. freundii NDM-1, n=1): >32 mg/L
- MICs range ([14]; ESBL + decreased membrane permeability, C. freundii TEM-3, n=1): 1 mg/L
- MICs range [15]: >32 mg/L
- MICs range ([16]; E. cloacae GES-5, n=1): >32 mg/L
- MICs range ([16]; E. cloacae IMP-8, n=2): 0.75 to 1.5 mg/L
- MICs range ([16]; E. cloacae KPC-2, n=7): 1 to 24 mg/L
- MICs range ([16]; E. cloacae NDM-1, n=1): 2 mg/L
- MICs range ([16]; E. cloacae NMC-A, n=1): 16 mg/L
- MICs range ([16]; E. cloacae OXA-48, n=3): 0.5 to 1 mg/L
- MICs range ([16]; ESBLs, E. cloacae CTX-M-15, n=3): 0.12 mg/L
- MICs range ([16]; ESBLs, E. cloacae VEB-1, n=1): 0.12 mg/L
- MICs range ([16]; Plasmid mediated AmpC or chromosomal AmpC + decreased membrane permeability, E. cloacae Overexpressed cephalosporinase, n=7): 0.12 to 16^ mg/L
- MICs range ([17]; P. rettgeri NDM-1, n=1): 3 mg/L
- MICs range ([17]; P. rettgeri OXA-181, n=1): 8 mg/L
